Tested on: mouse CD45-FLK1+CD31+CD34+ cells (liver sinusoidal endothelial progenitor cells)
Assay: Expression of liver sinusoidal endothelial cell marker genes by quantitative RT-PCR in mouse embryonic liver FLK1+CD31+CD34+ cells
Type: cell-based
Conditions: 5 days after addition of A83-01, versus day 0 before addition; FIG. 45
Protocol: TRIzol reagent (Life Technologies) or NucleoSpin RNA XS (MACHEREY-NAGAL, Duren, Germany) was used to extract the RNA. The remaining genomic DNA was digested using DNaseI (Life Technologies), and then a PrimeScript II 1st strand cDNA Synthesis Kit (Takara Bio, Shiga, Japan) was used to synthesize single-stranded cDNA. The quantitative RT-PCR was carried out using SYBR Premix EX TaqII (Takara Bio, Shiga, Japan), and the data were calculated according to the ddCt method with β-actin as the standardization control.
Liver was collected from a 12.5-day-old mouse embryo (C57BL/6 mouse). The liver was minced and digested for 10 minutes with Liver Digestion Medium (Life Technologies, California, US). The digested embryonic mouse hepatocytes were subjected to hemolysis and passed through a 70 μm cell strainer (BD Bioscience, New Jersey, US). […]
The FLK1^+CD31^+CD34^+ cells separated above were also seeded in a fibronectin-coated plate to 15,000 cells/cm^2 and cultured in endothelial cell medium. […] The cell count was calculated using a hemocytometer, after dissociating the cells using 0.05% trypsin/0.5 mM EDTA.

Cc1cccc(-c2nn(C(=S)Nc3ccccc3)cc2-c2ccnc3ccccc23)n1 [A83-01, 3-(6-methyl-2-pyridinyl)-N-phenyl-4-(4-quinolinyl)-1H-pyrazolo-1-carbothioamide]
expression of the mature liver sinusoidal endothelial cell marker genes Stab2, F8 and Lyve1: significantly induced expression

Reference: patent US12128072B2, “Hepatocytes and hepatic non-parenchymal cells, and methods for preparation thereof” (The University of Tokyo, priority 2015, dated 2024)
